From patent publication US10376520B2, “Methods for the treatment of cardiovascular disorders” (Galapagos NV, priority 2015, dated 2019)

Test system: RA patients
Assay: Plasma PCSK9 concentration (ELISA), Study 4
Format: in vivo, human
Conditions: for PCSK9 level, 4 weeks CFB: 4 weeks change from baseline
Method: Randomized double-blind, placebo-controlled add on study in subjects with active RA who have an inadequate response to MTX monotherapy, in combination with methotrexate, administered for 4 weeks in the treatment of subjects with active rheumatoid arthritis who have an inadequate response to methotrexate alone.
Compound 1 (dosed as a [Compound 1:HCl:3H2O]) capsules administered orally in 30 mg, 75 mg, 150 mg, or 300 mg doses per day for 4 weeks.
Plasma PCSK9 concentration was determined using a commercial available ELISA kit from R&D systems (614 McKinley Place NE, Minneapolis, Minn. 55413, USA) according to manufacturer's instruction. Catalogue number DPC900, lot number used: 321050.

O=C(Nc1nc2cccc(-c3ccc(CN4CCS(=O)(=O)CC4)cc3)n2n1)C1CC1 [Compound 1, cyclopropanecarboxylic acid {5-[4-(1,1-dioxo-thiomorpholin-4-ylmethyl)-phenyl]-[1,2,4]triazolo[1,5-a]pyridin-2yl}-amide]
PCSK9 level, 4 weeks CFB (30 mg q.d.): 6.8%
PCSK9 level, Baseline (30 mg q.d.): 282.1 ng/mL
PCSK9 level, week 4 (30 mg q.d.): 296.9 ng/mL
PCSK9 level, 4 weeks CFB (75 mg q.d.): 11.4%
PCSK9 level, Baseline (75 mg q.d.): 277.0 ng/mL
PCSK9 level, week 4 (75 mg q.d.): 292.4 ng/mL
PCSK9 level, 4 weeks CFB (150 mg q.d.): 11.6%
PCSK9 level, Baseline (150 mg q.d.): 264.4 ng/mL
PCSK9 level, week 4 (150 mg q.d.): 294.6 ng/mL
PCSK9 level, 4 weeks CFB (300 mg q.d.): 10.4%
PCSK9 level, Baseline (300 mg q.d.): 261.7 ng/mL
PCSK9 level, week 4 (300 mg q.d.): 291.2 ng/mL
